This is an account of results in US8293292B2, “Extract of Fraxinus excelsior seeds and therapeutic applications therefor” (Naturex, S.A., priority 2008, dated 2012).

One assay relates to 3T3-L1 cells. The experiment in a line: adipogenesis inhibition, glucose uptake of MDI-induced 3T3-L1 preadipocytes. In kind it is cell-based. The following applies: 0.004%, 0.02%, 0.05%, 0.1%; glucose uptake ten days after differentiation induction. From the text: Inhibitory effect of GI5 (5) and nuzhenide (3) on undifferentiated 3T3-L1 cells. The major component of weight gain is deposition of adipose tissue in body through the adipogenesis process. Adipogenesis is characterized by increase in the size and number of fat cells. The secoiridoids, GI5 and nuzhenide isolated from F. excelsior, have shown significant and mild adipogenesis inhibitory activity, respectively, by blocking the pathway from undifferentiated 3T3-L1 cell to differentiated adipocyte to achieve an effect on bodyweight control and body fat loss. 3T3-L1 preadipocytes were induced to differentiate with methylisobutylxanthine, dexamethasone, and insulin (MDI) hormonal cocktail in the presence or absence of compounds. Ten days after differentiation induction, the treated cells were assayed for their respective glucose uptake activity, which is an indirect measurement of differentiation (adipogenesis) because preadipocytes are incapable of insulin-induced, glucose transport-4 (GLUT4)-mediated glucose uptake while fully differentiate adipocytes are capable of this uptake. Compounds, GI5 and nuzhenide, were used at four different concentrations: 0.004%, 0.02%, 0.05%, and 0.1%. Untreated (undifferentiated) cells were used as a negative control while insulin was used as a positive control. Methanol (MeOH), the solvent of the compounds, was also used as a control.

Another assay addresses T1, PPAR-alpha (Homo sapiens, UniProt Q07869).
T1 sequence (Q07869 1-468): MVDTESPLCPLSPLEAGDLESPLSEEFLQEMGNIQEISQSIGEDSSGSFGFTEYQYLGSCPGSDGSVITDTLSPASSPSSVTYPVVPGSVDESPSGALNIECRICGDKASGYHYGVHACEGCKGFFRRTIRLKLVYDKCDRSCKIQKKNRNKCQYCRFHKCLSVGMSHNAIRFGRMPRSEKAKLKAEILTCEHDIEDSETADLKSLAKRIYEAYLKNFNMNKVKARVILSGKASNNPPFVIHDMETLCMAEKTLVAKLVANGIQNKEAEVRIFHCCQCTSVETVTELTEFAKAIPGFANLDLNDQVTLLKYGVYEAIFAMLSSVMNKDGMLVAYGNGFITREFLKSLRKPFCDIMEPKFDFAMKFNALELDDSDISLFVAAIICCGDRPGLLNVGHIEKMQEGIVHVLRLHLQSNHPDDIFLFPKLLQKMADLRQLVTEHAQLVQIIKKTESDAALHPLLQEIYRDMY
The experiment in a line: PPAR-alpha activation in reporter cell lines. In kind it is cell-based. The following applies: concentration of 10^−4 M. From the text: FIG. 6 illustrates relative PPARα activation potential (%) in reporter cell lines using concentrations ranging from 10^−5M-10^−9M for the selective synthetic PPARα activator WY14,643 as well as the isolated compounds at a concentration of 10^−4M and a 1:10 aqueous solution of FE seed extract, with compound label: FE19028 (Nuzhenide, 3), FE20015 (G13, 4), FE20031 (oleoside dimethyl ester, 6), FE21008 (excelside A, 1), and FE21023 (GI5, 5);
PPAR-alpha activity of excelside A (1), GI3 (4), and oleoside dimethyl ester (6). Five single compounds isolated from Fraxinus excelsior (FE) seed water extract were tested for PPAR-alpha activity. The synthetic and selective PPAR alpha activator WY14,643 served as positive control and DMSO which was used to dissolve these compounds as negative control in the assay.

`C/C=C1\C(CC(=O)OC[C@H]2O[C@@H](OCCc3ccc(O)cc3)[C@H](O)[C@@H](O)[C@@H]2O)C(C(=O)OC)=CO[C@H]1O[C@@H]1O[C@H](CO)[C@@H](O)[C@H](O)[C@H]1O` (stereo partly drawn) [nuzhenide]: in the assay with 3T3-L1 cells, the adipogenesis inhibitory activity result is given as “mild”. As to `C/C=C1\[C@H](O[C@@H]2O[C@H](CO)[C@@H](O)[C@H](O)[C@H]2O)OC=C(C(=O)OC)[C@H]1CC(=O)OC` [oleoside dimethyl ester], the PPAR-alpha activity result on PPAR-alpha was “good activity”. In the case of `C/C=C1/[C@H](O[C@@H]2O[C@H](CO[C@@H]3O[C@H](CO)[C@@H](O)[C@H](O)[C@H]3O)[C@@H](O)[C@H](O)[C@H]2O)OC=C(C(=O)OC)[C@H]1CC(=O)OC` [excelside A, (2S,3E,4S) 2H-Pyran-4-acetic acid-3-ethylidene-2-[(6-O-β-D-glucopyranosyl-β-D-glucopyranosyl)oxy]-3,4-dihydro-5-(methoxycarbonyl)methyl ester], the PPAR-alpha activity entry on PPAR-alpha is listed as “good activity”.
